In general, EC50 refers to the concentration at which the effect is half-maximal.

Where only a bound is given, the exact number is not on record here.

This note sets out measurements from patent US12351580B2, “NLRP3 modulators” (Innate Tumor Immunity, Inc., priority 2017, dated 2025).

For the assay, the target named is T1, TLR8 (Homo sapiens, UniProt Q9NR97).
T1 construct: host or cells: HEK-Blue cells (human HEK) co-expressing TLR8 and an NF-kB/AP1-inducible SEAP reporter
T1 sequence (Q9NR97 27-1041): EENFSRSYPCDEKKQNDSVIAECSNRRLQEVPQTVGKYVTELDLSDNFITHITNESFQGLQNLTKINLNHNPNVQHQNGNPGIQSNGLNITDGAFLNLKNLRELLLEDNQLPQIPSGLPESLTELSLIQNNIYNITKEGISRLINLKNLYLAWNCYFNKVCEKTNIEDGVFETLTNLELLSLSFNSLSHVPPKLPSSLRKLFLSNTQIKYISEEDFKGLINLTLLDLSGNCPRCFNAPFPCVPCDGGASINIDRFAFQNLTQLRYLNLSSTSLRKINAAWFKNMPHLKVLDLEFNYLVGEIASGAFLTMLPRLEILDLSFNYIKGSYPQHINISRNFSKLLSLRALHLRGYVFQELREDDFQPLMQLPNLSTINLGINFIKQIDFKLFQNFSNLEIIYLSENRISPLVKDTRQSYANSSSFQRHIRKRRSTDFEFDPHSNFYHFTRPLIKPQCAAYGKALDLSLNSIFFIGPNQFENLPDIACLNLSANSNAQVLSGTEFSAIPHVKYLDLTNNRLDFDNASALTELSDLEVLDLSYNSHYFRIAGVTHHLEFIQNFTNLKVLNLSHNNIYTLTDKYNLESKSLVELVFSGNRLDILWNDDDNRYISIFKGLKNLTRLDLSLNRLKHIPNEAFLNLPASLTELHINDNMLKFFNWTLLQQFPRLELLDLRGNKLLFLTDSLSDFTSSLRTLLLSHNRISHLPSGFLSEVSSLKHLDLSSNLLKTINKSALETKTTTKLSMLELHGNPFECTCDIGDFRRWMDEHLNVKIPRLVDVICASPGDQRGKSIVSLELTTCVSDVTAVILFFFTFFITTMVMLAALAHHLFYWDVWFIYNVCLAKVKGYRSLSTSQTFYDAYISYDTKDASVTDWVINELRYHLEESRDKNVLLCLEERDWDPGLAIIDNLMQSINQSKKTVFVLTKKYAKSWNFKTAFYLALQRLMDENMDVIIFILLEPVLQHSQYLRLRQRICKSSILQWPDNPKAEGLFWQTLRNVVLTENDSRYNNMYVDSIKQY
As to the kind of experiment: In vitro human TLR8 binding reporter assay (HEK-Blue, NF-kB/AP1-inducible SEAP). Conditions: activity range symbols. Format: cell-based. The procedure, abridged:
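Reporter cells are plated at 15,000 per well and rested 24 h. Next day, test compounds or DMSO are dispensed, followed by 18 h incubation at 37 °C, 5% CO2.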
(A reporter such as luciferase makes a cellular process visible.)
`Nc1nc2cc(-c3cccc(Cl)c3)ccc2c2[nH]c(CN3CCCC3=O)nc12` [Compound 285, 1-[[4-amino-7-(3-chlorophenyl)-1H-imidazo[4,5-c]quinolin-2-yl]methyl]pyrrolidin-2-one] returned a concentration for a half-maximal effect (EC50) of more than 100 µM.

Take `Cc1cccc(-c2ccc3c(c2)nc(N)c2nc(CN4CCCC4=O)[nH]c23)c1` [Compound 286, 1-[[4-amino-7-(3-methylphenyl)-1H-imidazo[4,5-c]quinolin-2-yl]methyl]pyrrolidin-2-one]: the EC50 was more than 100 µM.

`COc1cccc(-c2ccc3c(c2)nc(N)c2nc(CN4CCCC4=O)[nH]c23)c1` [Compound 287, 1-[[4-amino-7-(3-methoxyphenyl)-1H-imidazo[4,5-c]quinolin-2-yl]methyl]pyrrolidin-2-one] yielded an EC50 of more than 100 µM. `N#Cc1cccc(-c2ccc3c(c2)nc(N)c2nc(CN4CCCC4=O)[nH]c23)c1` [Compound 288, 3-[4-amino-2-[(2-oxopyrrolidin-l-yl)methyl]-1H-imidazo[4,5-c]quinolin-7-yl]benzonitrile]: the EC50 is more than 100 µM.

`Nc1nc2cc(-c3cccc(F)c3)ccc2c2[nH]c(CN3CCCC3=O)nc12` [Compound 289, 1-[[4-amino-7-(3-fluorophenyl)-1H-imidazo[4,5-c]quinolin-2-yl]methyl]pyrrolidin-2-one] came in with an EC50 of more than 100 µM. `Cc1ccc(-c2ccc3c(c2)nc(N)c2nc(CN4CCCC4=O)[nH]c23)cc1` [Compound 291, 1-[[4-amino-7-(4-methylphenyl)-1H-imidazo[4,5-c]quinolin-2-yl]methyl]pyrrolidin-2-one] yielded an EC50 of more than 100 µM. `Nc1nc2cc(Br)ccc2c2[nH]c(CN3CCCC3=O)nc12` [Compound 294, 1-[(4-amino-7-bromo-1H-imidazo[4,5-c]quinolin-2-yl)methyl]pyrrolidin-2-one] returned a half-maximal effective concentration (EC50) of more than 100 µM.

For the compound `Nc1nc2cc(-n3cccn3)ccc2c2[nH]c(CN3CCCC3=O)nc12` [Compound 295, 1-[(4-amino-7-pyrazol-1-yl-1H-imidazo[4,5-c]quinolin-2-yl)methyl]pyrrolidin-2-one], the EC50 is more than 100 µM.

With `Cc1cnn(-c2ccc3c(c2)nc(N)c2nc(CN4CCCC4=O)[nH]c23)c1` [Compound 296, 1-[[4-amino-7-(4-methylpyrazol-1-yl)-1H-imidazo[4,5-c]quinolin-2-yl]methyl]pyrrolidin-2-one], the EC50 is more than 100 µM. As for `Nc1nc2cc(C3CCOCC3)ccc2c2[nH]c(CN3CCCC3=O)nc12` [Compound 298, 1-[[4-amino-7-(oxan-4-yl)-1H-imidazo[4,5-c]quinolin-2-yl]methyl]pyrrolidin-2-one], the EC50 was more than 100 µM.

`Cc1ccn(-c2ccc3c(c2)nc(N)c2nc(CN4CCCC4=O)[nH]c23)n1` [Compound 301, 1-[[4-amino-7-(3-methylpyrazol-1-yl)-1H-imidazo[4,5-c]quinolin-2-yl]methyl]pyrrolidin-2-one] returned an EC50 of more than 100 µM.

As for `Nc1nc2cc(C3CCCCC3)ccc2c2[nH]c(CN3CCCC3=O)nc12` [Compound 302, 1-[(4-amino-7-cyclohexyl-1H-imidazo[4,5-c]quinolin-2-yl)methyl]pyrrolidin-2-one], the EC50 is more than 100 µM. `CC(c1nc2c(N)nc3cc(Br)ccc3c2[nH]1)N1CCCC1=O` (stereo not shown) [Compound 303, 1-[1-(4-amino-7-bromo-1H-imidazo[4,5-c]quinolin-2-yl)ethyl]pyrrolidin-2-one] gave an EC50 of 20 to 100 µM.
